Experimental data: ChEMBL document CHEMBL2029220, “Oxaphosphinanes: new therapeutic perspectives for glioblastoma” (J Med Chem, 2012)
Activity calls are given as the source filed them. The calls are words filed in the database; no cut-off is given here.

Legend:
C6 [1] = assay: Antiproliferative activity against rat C6 cells assessed as higher lowest toxic concentration after 48 hrs by MTT assay relative to control; format: functional
C6 [2] = assay: Antiproliferative activity against rat C6 cells at 10 uM after 48 hrs by MTT assay relative to control; format: functional
MDA-MB-435 [3] = assay: Antiproliferative activity against human MDA-MB-435 cells assessed as higher lowest toxic concentration after 48 hrs by MTT assay relative to control; format: functional
MDA-MB-435 [4] = assay: Antiproliferative activity against human MDA-MB-435 cells at 10 uM after 48 hrs by MTT assay relative to control; format: functional
B16-F10 [5] = assay: Antiproliferative activity against mouse B16F10 cells at 10 uM after 48 hrs by MTT assay relative to control; format: functional
A-431 [6] = assay: Antiproliferative activity against human A431 cells at 10 uM after 48 hrs by MTT assay relative to control; format: functional
Huh-7 [7] = assay: Antiproliferative activity against human HuH7 cells at 10 uM after 48 hrs by MTT assay relative to control; format: functional
Caco-2 [8] = assay: Antiproliferative activity against human Caco2 cells at 10 uM after 48 hrs by MTT assay relative to control; format: functional
DU-145 [9] = assay: Antiproliferative activity against human DU145 cells at 10 uM after 48 hrs by MTT assay relative to control; format: functional
MDA-MB-231 [10] = assay: Antiproliferative activity against human MDA-MB-231 cells at 10 uM after 48 hrs by MTT assay relative to control; format: functional
B16-F10 [11] = assay: Antiproliferative activity against mouse B16F10 cells assessed as higher lowest toxic concentration after 48 hrs by MTT assay relative to control; format: functional
A-431 [12] = assay: Antiproliferative activity against human A431 cells assessed as higher lowest toxic concentration after 48 hrs by MTT assay relative to control; format: functional
Huh-7 [13] = assay: Antiproliferative activity against human HuH7 cells assessed as higher lowest toxic concentration after 48 hrs by MTT assay relative to control; format: functional
Caco-2 [14] = assay: Antiproliferative activity against human Caco2 cells assessed as higher lowest toxic concentration after 48 hrs by MTT assay relative to control; format: functional
DU-145 [15] = assay: Antiproliferative activity against human DU145 cells assessed as higher lowest toxic concentration after 48 hrs by MTT assay relative to control; format: functional
MDA-MB-231 [16] = assay: Antiproliferative activity against human MDA-MB-231 cells assessed as higher lowest toxic concentration after 48 hrs by MTT assay relative to control; format: functional
SF-268 = assay: Antiproliferative activity against human SF268 cells at 10 uM after 24 hrs by SRB assay; format: functional, cell-based
U-251 = assay: Antiproliferative activity against human U251 cells at 10 uM after 24 hrs by SRB assay; format: functional, cell-based
HOP-62 = assay: Antiproliferative activity against human HOP62 cells at 10 uM after 24 hrs by SRB assay; format: functional, cell-based
NCI-H522 = assay: Antiproliferative activity against human NCI-H522 cells at 10 uM after 24 hrs by SRB assay; format: functional, cell-based
SK-OV-3 = assay: Antiproliferative activity against human SKOV3 cells at 10 uM after 24 hrs by SRB assay; format: functional, cell-based
MDA-MB-468 = assay: Antiproliferative activity against human MDA-MB-468 cells at 10 uM after 24 hrs by SRB assay; format: functional, cell-based
LOX IMVI = assay: Antiproliferative activity against human LOXIMVI cells at 10 uM after 24 hrs by SRB assay; format: functional; details: read-out: GI
UO-31 = assay: Antiproliferative activity against human UO31 cells at 10 uM after 24 hrs by SRB assay; format: functional; details: UO-31, 24 h, read-out: GI
C6 [17] = assay: Antiproliferative activity against rat C6 cells at 0.1 to 100 uM after 48 hrs by neutral red incorporation assay; format: functional, cell-based
C6 [18] = assay: Cytotoxicity against rat C6 cells at 10 uM after 1 hr by LDH Assay; format: functional, cell-based
C6 [19] = assay: Antiproliferative activity against rat C6 cells after 48 hrs by MTT assay; format: functional, cell-based; details: C6, 48 h
C6 [20] = assay: Antiproliferative activity against rat C6 cells at 1 uM after 48 hrs by MTT assay relative to control; format: functional
MDA-MB-435 [21] = assay: Antiproliferative activity against human MDA-MB-435 cells at 1 uM after 48 hrs by MTT assay relative to control; format: functional
MDA-MB-435 [22] = assay: Antiproliferative activity against human MDA-MB-435 cells after 48 hrs by MTT assay; format: functional, cell-based; details: MDA-MB-435, 48 h
B16-F10 [23] = assay: Antiproliferative activity against mouse B16F10 cells at 1 uM after 48 hrs by MTT assay relative to control; format: functional
B16-F10 [24] = assay: Antiproliferative activity against mouse B16F10 cells after 48 hrs by MTT assay; format: functional, cell-based; details: B16-F10, 48 h
A-431 [25] = assay: Antiproliferative activity against human A431 cells at 1 uM after 48 hrs by MTT assay relative to control; format: functional
A-431 [26] = assay: Antiproliferative activity against human A431 cells after 48 hrs by MTT assay; format: functional, cell-based; details: A-431, 48 h
Huh-7 [27] = assay: Antiproliferative activity against human HuH7 cells at 1 uM after 48 hrs by MTT assay relative to control; format: functional
Huh-7 [28] = assay: Antiproliferative activity against human HuH7 cells after 48 hrs by MTT assay; format: functional, cell-based; details: Huh-7, 48 h
Caco-2 [29] = assay: Antiproliferative activity against human Caco2 cells at 1 uM after 48 hrs by MTT assay relative to control; format: functional
Caco-2 [30] = assay: Antiproliferative activity against human Caco2 cells after 48 hrs by MTT assay; format: functional, cell-based; details: Caco-2, 48 h
DU-145 [31] = assay: Antiproliferative activity against human DU145 cells at 1 uM after 48 hrs by MTT assay relative to control; format: functional, cell-based
DU-145 [32] = assay: Antiproliferative activity against human DU145 cells after 48 hrs by MTT assay; format: functional, cell-based; details: DU-145, 48 h
MDA-MB-231 [33] = assay: Antiproliferative activity against human MDA-MB-231 cells at 1 uM after 48 hrs by MTT assay relative to control; format: functional
SF-295 = assay: Antiproliferative activity against human SF295 cells at 10 uM after 24 hrs by SRB assay; format: functional, cell-based
SNB-75 = assay: Antiproliferative activity against human SNB75 cells at 10 uM after 24 hrs by SRB assay; format: functional, cell-based
Hs-578T = assay: Antiproliferative activity against human Hs 578T cells at 10 uM after 24 hrs by SRB assay; format: functional, cell-based
[34] = Cytotoxicity against mouse astrocytes assessed as decrease in cell viability at 1 to 100 uM after 48 hrs by neutral red incorporation assay; format: cell-based; details: astrocyte
[35] = Cytotoxicity against mouse astrocytes assessed as decrease in cell viability at 1 to 100 uM after 48 hrs by Hoechst 33342 staining; format: cell-based; details: astrocyte
[36] = Cytotoxicity against mouse astrocytes assessed as decrease in cell viability at 1 to 100 uM after 48 hrs by propidium iodide incorporation assay; format: cell-based; details: astrocyte
C6 [37] = assay: Cytotoxicity against rat C6 cells assessed as decrease in cell index at 100 uM after 1 hr; format: functional, cell-based
C6 [38] = assay: Cytotoxicity against rat C6 cells assessed as decrease in cell index at 50 uM after 2 hrs; format: functional, cell-based
C6 [39] = assay: Cytotoxicity against rat C6 cells assessed as decrease in cell index at 25 uM after 3 hrs; format: functional, cell-based
C6 [40] = assay: Cytotoxicity against rat C6 cells assessed as decrease in cell index at 10 uM after 3 hrs; format: functional, cell-based
C6 [41] = assay: Cytotoxicity against rat C6 cells assessed as decrease in cell index at 5 uM after 3 hrs; format: functional, cell-based
C6 [42] = assay: Cytotoxicity against rat C6 cells assessed as decrease in cell index at 1 uM after 3 hrs; format: functional, cell-based

Compound `O=[P@@]1(c2ccccc2)O[C@H](COCc2ccccc2)[C@@H](OCc2ccccc2)[C@H](OCc2ccccc2)[C@@H]1O` has an Activity (C6 [1]) of 0.1 µM, an Activity (C6 [2]) of 31% and an Activity (MDA-MB-435 [3]) of 0.1 µM. The Activity (MDA-MB-435 [4]) was 43%, the Activity (B16-F10 [5]) was “inactive” and the Activity (A-431 [6]) was 33%. It also gave an Activity (Huh-7 [7]) of 55%, an Activity (Caco-2 [8]) of 15% and an Activity (DU-145 [9]) of 14%. For the same compound, the Activity (MDA-MB-231 [10]) was 18%, the Activity (B16-F10 [11]) was 25 µM and the Activity (A-431 [12]) was 5 µM. The Activity (Huh-7 [13]) was 0.1 µM, the Activity (Caco-2 [14]) was 5 µM and the Activity (DU-145 [15]) was 1 µM. For the same compound, the Activity (MDA-MB-231 [16]) was 5 µM, the “growth inhibition (GI)” value (SF-268) was “Active” and the “growth inhibition (GI)” value (U-251) was “Active”. For the same compound, the “growth inhibition (GI)” value (HOP-62) was “Active”, the “growth inhibition (GI)” value (NCI-H522) was “Active” and the “growth inhibition (GI)” value (SK-OV-3) was “Active”. For the same compound, the “growth inhibition (GI)” value (MDA-MB-468) was “Active”, the inhibition of growth at 10 µM (LOX IMVI) was 45% and the inhibition of growth at 10 µM (UO-31) was 50%. The Activity (C6 [17]) was “Active”, the Activity (C6 [18]) was “Active” and the EC50 (C6 [19]) was 23.8 µM.

Compound `O=[P@@]1(c2ccccc2)O[C@H](COCc2ccccc2)[C@@H](OCc2ccccc2)[C@H](OCc2ccccc2)[C@H]1O` has an Activity (C6 [1]) of 0.001 µM, an Activity (C6 [2]) of 82% and an Activity (C6 [20]) of 63%. The Activity (MDA-MB-435 [3]) was 0.001 µM, the Activity (MDA-MB-435 [4]) was 42% and the Activity (MDA-MB-435 [21]) was 22%. The EC50 (MDA-MB-435 [22]) was 13.9 µM, the Activity (B16-F10 [5]) was 73% and the Activity (B16-F10 [23]) was 25%. The EC50 (B16-F10 [24]) was 4.9 µM, the Activity (A-431 [6]) was 32% and the Activity (A-431 [25]) was 18%. The EC50 (A-431 [26]) was 14.5 µM, the Activity (Huh-7 [7]) was 22% and the Activity (Huh-7 [27]) was 16%. For the same compound, the EC50 (Huh-7 [28]) was 30 µM, the Activity (Caco-2 [8]) was 43% and the Activity (Caco-2 [29]) was 10%. The EC50 (Caco-2 [30]) was 57 µM, the Activity (DU-145 [9]) was 40% and the Activity (DU-145 [31]) was “inactive”. It also gave an EC50 (DU-145 [32]) of 65 µM, an Activity (MDA-MB-231 [10]) of 30% and an Activity (MDA-MB-231 [33]) of 17%. For the same compound, the Activity (B16-F10 [11]) was 0.5 µM, the Activity (A-431 [12]) was 0.1 µM and the Activity (Huh-7 [13]) was 0.1 µM. It also gave an Activity (Caco-2 [14]) of 0.5 µM, an Activity (DU-145 [15]) of 5 µM and an Activity (MDA-MB-231 [16]) of 0.1 µM. The “growth inhibition (GI)” value (SF-295) was “Active”, the “growth inhibition (GI)” value (SNB-75) was “Active” and the “growth inhibition (GI)” value (Hs-578T) was “Active”. The Activity (C6 [17]) was “Active”, the Activity [34] was “Non-toxic” and the Activity [35] was “Non-toxic”. For the same compound, the Activity [36] was “Non-toxic”, the Activity (C6 [18]) was “Active” and the Activity (C6 [37]) was “Active”. For the same compound, the Activity (C6 [38]) was “Active”, the Activity (C6 [39]) was “Active” and the Activity (C6 [40]) was “inactive”. For the same compound, the Activity (C6 [41]) was “Active”, the Activity (C6 [42]) was “inactive” and the EC50 (C6 [19]) was 0.52 µM.
